The source of these data is patent US20080255082A1, “Hair and/or Scalp Care Compositions Incorporating Terpenoid Compounds” (priority 2005, published 2008).

For one assay, the target named is T1, human recombinant CB1 (Homo sapiens, UniProt P21554).
T1 construct: purchased Perkin-Elmer; host or cells: HEK293
Briefly: CB1R radioligand binding on membranes from HEK293 cells over-expressing CB1. The method, then: (§1) Terpenoid compounds of formula (I), (II) or (III) above were evaluated for their ability to activate Cannabinoid Receptor 1 (CB1R) and Cannabinoid Receptor 2 (CB2R). Their ClogP values were also measured.
CB1R experiments were performed using membranes from HEK293 cells over-expressing human recombinant CB1, as described by the manufacturer (Perkin-Elmer) and using [3H]CP-55,490 as the radioligand.
(§2) Data of active compounds are expressed in Ki (mM) and are means ±SEM of n=3 determinations.
(§3) The values that are stated for each of the compounds is an EC50 value. This is defined as the molar concentration of an agonist, which produces 50% of the maximum possible response for that agonist. The values documented are in micromolar units.

The target in the next assay is T2, human recombinant CB2 (Homo sapiens, UniProt P34972).
T2 construct: purchased Perkin-Elmer; host or cells: HEK293
T2 sequence (P34972 whole entry): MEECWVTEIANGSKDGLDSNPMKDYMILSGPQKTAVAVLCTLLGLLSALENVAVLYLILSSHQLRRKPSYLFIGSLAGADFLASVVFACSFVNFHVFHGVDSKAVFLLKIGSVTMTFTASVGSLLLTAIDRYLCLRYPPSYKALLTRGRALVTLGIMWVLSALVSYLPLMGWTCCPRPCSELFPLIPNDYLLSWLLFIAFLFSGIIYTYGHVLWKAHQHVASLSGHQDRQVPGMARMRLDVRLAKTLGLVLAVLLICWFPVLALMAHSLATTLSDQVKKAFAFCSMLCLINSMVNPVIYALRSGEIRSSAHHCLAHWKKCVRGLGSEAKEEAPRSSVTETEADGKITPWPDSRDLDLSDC
In words: CB2R radioligand binding on membranes from HEK293 cells over-expressing CB2. The method, then: as §1
CB2R experiments were performed using membranes from HEK293 cells over-expressing human recombinant CB2, as described by the manufacturer (Perkin-Elmer), and using [3H]CP-55,495 as the radioligand.
as §2, §3

Where [1] appears, read: HEK293 membranes, [3H]CP-55,490 radioligand, means of n=3, read-out: CB1R Activity.
The mark [2] stands for this setting: HEK293 membranes, [3H]CP-55,495 radioligand, means of n=3, dash = greater than 25 micromolar, read-out: CB2R Activity.

Like-named read-outs stand apart in the source and are kept apart here.

T1 sequence (P21554 whole entry): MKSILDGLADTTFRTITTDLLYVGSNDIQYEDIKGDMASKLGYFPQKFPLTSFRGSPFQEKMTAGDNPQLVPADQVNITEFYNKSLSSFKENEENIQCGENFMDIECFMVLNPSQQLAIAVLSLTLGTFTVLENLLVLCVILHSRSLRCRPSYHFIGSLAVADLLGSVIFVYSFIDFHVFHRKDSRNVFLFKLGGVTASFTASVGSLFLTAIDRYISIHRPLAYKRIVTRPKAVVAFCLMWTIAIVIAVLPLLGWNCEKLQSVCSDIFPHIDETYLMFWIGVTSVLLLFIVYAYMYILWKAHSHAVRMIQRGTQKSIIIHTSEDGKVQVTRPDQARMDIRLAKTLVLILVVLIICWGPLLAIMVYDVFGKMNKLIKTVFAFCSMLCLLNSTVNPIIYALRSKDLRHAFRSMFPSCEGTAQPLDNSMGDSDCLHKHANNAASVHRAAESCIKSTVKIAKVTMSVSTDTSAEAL

Consider `C=C(C)C1Cc2c(cc(O)c3c2OC2C(O)Oc4cc(OC)c(OC)cc4C2C3=O)O1` (centres unmarked) [Example 1, 6-hydroxysumatrol], for which the EC50 at human recombinant CB1 (setting [1]) is 17.1 µM; at human recombinant CB2 (setting [2]), greater than 25 µM.
Consider `COc1cc(C2Oc3ccc(C4CC(=O)c5c(O)cc(O)cc5O4)cc3OC2CO)ccc1O` (centres unmarked) [Example 3, silandrin], for which the results for the EC50 at human recombinant CB1 and at human recombinant CB2 were 22 µM and greater than 25 µM, respectively.
Take isophaseollin [Example 2]: on human recombinant CB1, the “activation of Cannabinoid Receptor 1 (CB1R), in words” value is listed as “can activate”. The EC50 was 15.5 µM at human recombinant CB1 (setting [1]) and 22.3 µM at human recombinant CB2 (setting [2]). In addition, the “activation of Cannabinoid Receptor 2 (CB2R), in words” value on human recombinant CB2 is “can activate”.
